Data published in article PMC5734940 (Toxicology and applied pharmacology, 2017).
Where two headings read alike, the source gives them in different places.

Columns and labels:
[1] = tested on: Human iPSC-derived cardiomyocytes (iCell cardiomyocytes); format: cell-based
[2] = tested on: Human iPSC-derived cardiomyocytes (iCell cardiomyocytes); assay: Calcium flux assay; details: for Ca2+-flux phenotype in words: text to Figure 3; for Effect on beat frequency (in words): at 10 and/or 30 μM, PAHs; for Typical phenotypic response of calcium-flux signal trace: 30 μM, after 30 minutes of exposure, Figure 3
[3] = tested on: Human iPSC-derived cardiomyocytes (iCell cardiomyocytes); details: 30 min after treatment, JC-10
[4] = tested on: Human iPSC-derived cardiomyocytes (iCell cardiomyocytes); details: for Cytotoxicity (in words): 24 hrs, concentrations up to 30 μM
[5] = at both short-term (30 min) and longer-term exposures (24 hrs)
[6] = primarily at 24 hrs of exposure, Figure 5

## C[n+]1ccc(-c2ccccc2)cc1.[I-] [1-methyl-4-phenylpyridinium iodide, 1-Methyl-4-phenylpyridinium iodide (MPP+), reference compound]
[1]; [5]
  Cardiotoxic selectivity for peak frequency (selective = ratio ≥3): selective
[2]
  Ca2+-flux phenotype in words: decrease in the peak frequency concomitant with an increase in the average peak width

## Brc1ccc(Oc2cc(Br)c(Br)cc2Br)c(Br)c1 [2,2′,4,4′,5-pentabromodiphenyl ether, 2,2′,4,4′,5-Pentabromodiphenyl ether]
[1]; [5]
  Cardiotoxic selectivity for peak frequency (selective = ratio ≥3): selective

## Brc1ccc(Oc2ccc(Br)cc2Br)c(Br)c1 [2,2′,4,4′-tetrabromodiphenyl ether, 2,2′4,4′-Tetrabromodiphenyl ether]
[1]; [5]
  Cardiotoxic selectivity for peak frequency (selective = ratio ≥3): selective

## CCCCC(CC)COP(=O)(Oc1ccccc1)Oc1ccccc1 (centres unmarked) [2-ethylhexyl diphenyl phosphate, 2- Ethylhexyl diphenyl phosphate (EHDP)]
[3]
  Effect on mitochondria / mitochondria potential (in words): selectively decreased mitochondria potential

## N#CCCNCCC#N [3,3′-iminodipropionitrile, 3,3′-Iminodipropionitrile]
[4]; [6]
  Response in the Calcein AM readout: positive response

## c1cc2c3c(c1)ccc1cccc(c13)C2 [4-H-cyclopenta(d,e,f)phenanthrene, 4-H-Cyclopenta(d,e,f)phenanthrene]
[2]
  Effect on beat frequency (in words): positive but generally weak effect

## C1=Cc2cccc3cccc1c23 [acenaphthylene, Acenaphthylene]
[1]; [5]
  Cardiotoxic selectivity for peak frequency (selective = ratio ≥3): selective
[2]
  Effect on beat frequency (in words): positive but generally weak effect

## c1ccc2cc3ccccc3cc2c1 [anthracene, Anthracene]
[4]; [6]
  Response in the Calcein AM readout: positive response

## c1ccc2cc3c(ccc4ccccc43)cc2c1 [benz(a)anthracene, Benz(a)anthracene]
[4]; [6]
  Response in the Calcein AM readout: positive response
[2]
  Effect on beat frequency (in words): positive but generally weak effect

## c1ccc2c(c1)cc1ccc3cccc4ccc2c1c34 [benzo(a)pyrene, Benzo(a)pyrene]
[2]
  Effect on beat frequency (in words): positive but generally weak effect

## c1ccc2c(c1)-c1cccc3c1c-2cc1ccccc13 [benzo(b)fluoranthene, Benzo(b)fluoranthene]
[4]; [6]
  Response in the Calcein AM readout: positive response
[2]
  Effect on beat frequency (in words): positive but generally weak effect

## c1ccc2c(c1)c1cccc3ccc4cccc2c4c31 [benzo(e)pyrene, Benzo(e)pyrene]
[4]; [6]
  Response in the Calcein AM readout: positive response
[2]
  Typical phenotypic response of calcium-flux signal trace: mild increases in peak frequency
  Effect on beat frequency (in words): positive but generally weak effect

## c1ccc2cc3c(cc2c1)-c1cccc2cccc-3c12 [benzo(k)fluoranthene, Benzo(k)fluoranthene]
[4]; [6]
  Response in the Calcein AM readout: positive response
[2]
  Typical phenotypic response of calcium-flux signal trace: mild increases in peak frequency
  Effect on beat frequency (in words): positive but generally weak effect

## COc1ccc2cc3[n+](cc2c1OC)CCc1cc2c(cc1-3)OCO2 [berberine chloride, Berberine chloride, reference compound]
[1]; [5]
  Cardiotoxic selectivity for peak frequency (selective = ratio ≥3): selective
[2]
  Ca2+-flux phenotype in words: decrease in the peak frequency concomitant with an increase in the average peak width

## O=C(O)CCCC[C@@H]1SC[C@@H]2NC(=O)N[C@@H]21 [biotin, Biotin, reference compound]
[2]
  Typical phenotypic response of calcium-flux signal trace: unaffected regular Ca2+-flux
  Ca2+-flux phenotype in words: regular beating pattern

## CCOP(=S)(OCC)Oc1nc(Cl)c(Cl)cc1Cl [chlorpyrifos, Chlorpyrifos]
[3]
  Effect on mitochondria / mitochondria potential (in words): selectively decreased mitochondria potential

## CC1(C)[C@H](C(=O)O[C@H](C#N)c2cccc(Oc3ccccc3)c2)[C@@H]1C=C(Br)Br [deltamethrin, Deltamethrin]
[1]; [5]
  Cardiotoxic selectivity for peak frequency (selective = ratio ≥3): selective

## CCCCC(CC)COC(=O)c1ccccc1C(=O)OCC(CC)CCCC (centres unmarked) [di(2-ethylhexyl) phthalate, Di(2-ethylhexyl) phthalate]
[1]; [5]
  Cardiotoxic selectivity for peak frequency (selective = ratio ≥3): selective

## CN1C(=O)CN=C(c2ccccc2)c2cc(Cl)ccc21 [diazepam, Diazepam, reference compound]
[2]
  Effect on peak frequency (in words): altered peak frequency

## c1ccc2c(c1)Cc1ccccc1-2 [fluorene, Fluorene]
[1]; [5]
  Cardiotoxic selectivity for peak frequency (selective = ratio ≥3): selective
[2]
  Effect on beat frequency (in words): positive but generally weak effect

## Cl[C@H]1[C@H](Cl)[C@@H](Cl)[C@@H](Cl)[C@H](Cl)[C@H]1Cl [lindane, Lindane]
[3]
  Effect on mitochondria / mitochondria potential (in words): selectively decreased mitochondria potential

## CCCCCC [n-hexane, n-Hexane]
[4]
  Response in the Calcein AM readout: positive response
[4]; human
  POD, Calcein AM readout: below 30 μM
[2]
  Effect on peak frequency (in words): altered peak frequency

## c1ccc2ccccc2c1 [naphthalene, Naphthalene]
[2]
  Effect on beat frequency (in words): positive but generally weak effect

## CCOP(=S)(OCC)Oc1ccc([N+](=O)[O-])cc1 [parathion, Parathion]
[3]
  Effect on mitochondria / mitochondria potential (in words): selectively decreased mitochondria potential

## CC1(C)C(C=C(Cl)Cl)C1C(=O)OCc1cccc(Oc2ccccc2)c1 (centres unmarked) [permethrin, Permethrin]
[1]; [5]
  Cardiotoxic selectivity for peak frequency (selective = ratio ≥3): selective

## c1ccc2c(c1)ccc1ccccc12 [phenanthrene, Phenanthrene]
[2]
  Effect on beat frequency (in words): positive but generally weak effect

## c1cc2ccc3cccc4ccc(c1)c2c34 [pyrene, Pyrene]
[1]; [5]
  Cardiotoxic selectivity for peak frequency (selective = ratio ≥3): selective
[2]
  Effect on beat frequency (in words): positive but generally weak effect

## C=C(C)[C@H]1Cc2c(ccc3c2O[C@@H]2COc4cc(OC)c(OC)cc4[C@@H]2C3=O)O1 [rotenone, Rotenone]
[4]
  Cytotoxicity (in words): highly cytotoxic
[2]; endpoints other than JC-10 at 30 min
  POD values in most other endpoints queried, including cytotoxicity: below 30 μM
[2]
  Ca2+-flux phenotype in words: Negative inotropic effects

## CC(C)(C)C(O)(CCc1ccc(Cl)cc1)Cn1cncn1 (centres unmarked) [tebuconazole, Tebuconazole]
[3]
  Effect on mitochondria / mitochondria potential (in words): selectively decreased mitochondria potential

## O=P(Oc1ccccc1)(Oc1ccccc1)Oc1ccccc1 [triphenyl phosphate, Triphenyl phosphate]
[3]
  Effect on mitochondria / mitochondria potential (in words): selectively decreased mitochondria potential

## CC(C)[C@@H]1NC(=O)[C@H](C)OC(=O)[C@@H](C(C)C)NC(=O)[C@@H](C(C)C)OC(=O)[C@H](C(C)C)NC(=O)[C@H](C)OC(=O)[C@@H](C(C)C)NC(=O)[C@@H](C(C)C)OC(=O)[C@H](C(C)C)NC(=O)[C@H](C)OC(=O)[C@@H](C(C)C)NC(=O)[C@@H](C(C)C)OC1=O [valinomycin, Valinomycin, reference compound]
[4]
  Cytotoxicity (in words): highly cytotoxic
[3]
  Effect on mitochondria / mitochondria potential (in words): strong effect

## Phenol, isopropylated, phosphate (3:1)
[1]
  Cardiotoxic selectivity for peak frequency (selective = ratio ≥3): selective
[2]
  Shape of concentration response for cardiomyocyte peak frequency: non-monotonic concentration responses
